In brackets after ≈: the same amount, converted by molar mass.
How the values were obtained:
[1] = test system: Botrytis cinerea (ATCC #204446); test: in vitro inhibition assay for volatile antimicrobial compounds (headspace, PDA agar); format: cell-based; details: volatile headspace exposure, 3 days at 23° C.; for MIC / EC50: Botrytis cinerea, ATCC204446, 72 h; for EC50: growth relative to control
Experimental: (§1) 12-well (6.5 ml volume per well) microtiter plates are used for the in vitro inhibition assay for volatile antimicrobial compounds. A 3-ml volume of full-strength Potato Dextrose Agar (PDA) is added to each well. After cooling, 1 μL of 1×10^5 spores per ml Botrytis cinerea (ATCC #204446) spore suspension is spot pipetted to the agar in the center of the well. Whatman #1 filter disks (1.5 cm; Cat. No. 1001-0155) are placed on the underside of a polyethylene PCR plate sealing film. For determination of the minimum inhibitory concentration (MIC), test compounds are diluted in acetone, in duplicate, and 50 μli of the compound solution is added to disks at concentrations that can vary from 0.001 mg/l to 1142.9 mg/l. The acetone is permitted to evaporate for 5 minutes. The headspace around the Botrytis cinerea inoculum is then sealed inside the well by the film with the adhering disk containing the antimicrobial, anti-decay, anti-spoilage, or pathogen control agent. Plates are inverted to prevent any possibility of the chemical from flaking from the disk and falling onto the inoculated agar.

Penicillium expansum = test: as above; format: cell-based; details: volatile headspace exposure
Experimental: [The procedure below names another organism; the source lists this organism under the same test.] as §1

SMILES | MIC [1] [mg/L] | EC50 [1] [mg/L] | EC50 (Penicillium expansum) [mg/L] | MIC (Penicillium expansum) [mg/L] | MIC Botrytis cinerea [1] [mg/L]
CC(C)(OB1OCc2ccccc21)C(C)(C)OB1OCc2ccccc21 [Compound 3, 1,1′-((2,3-dimethylbutane-2,3-diyl)bis(oxy))bis(1,3-dihydrobenzo[c][1,2]oxaborole)] | 8.9 (≈ 25.4 µM) | 2.1 (≈ 6 µM) | 11.1 (≈ 31.7 µM) | 71.4 (≈ 204 µM) | 
c1ccc2c(c1)COB2OCCNCCNCCOB1OCc2ccccc21 [Compound 4, N^1,N^2-bis(2-(benzo[c][1,2]oxaborol-1(3H)-yloxy)ethyl)ethane-1,2-diamine] | 1.1 (≈ 2.89 µM) | 0.4 (≈ 1.05 µM) | 2 (≈ 5.26 µM) | 8.9 (≈ 23.4 µM) | 
c1ccc2c(c1)COB2NCCNB1OCc2ccccc21 [Compound 5, N^1,N^2-bis(benzo[c][1,2]oxaborol-1(3H)-yl)ethane-1,2-diamine] |  |  | 3.3 (≈ 11.3 µM) | 17.9 (≈ 61.3 µM) | 
c1ccc2c(c1)COB2OB1OCc2ccccc21 [Compound 6, 1,1′-oxybis(1,3-dihydrobenzo[c][1,2]oxaborole)] | 2.2 (≈ 8.8 µM) | 0.8 (≈ 3.2 µM) | 3.1 (≈ 12.4 µM) | 17.9 (≈ 71.6 µM) | 
CC(C)(COB1OCc2cc(F)ccc21)COB1OCc2cc(F)ccc21 [Compound 8, 1,1′-((2,2-dimethylpropane-1,3-diyl)bis(oxy))bis(5-fluoro-1,3-dihydrobenzo[c][1,2]oxaborole)] | 0.6 (≈ 1.61 µM) | 0.3 (≈ 0.806 µM) | 0.8 (≈ 2.15 µM) | 2.2 (≈ 5.91 µM) | 
Fc1ccc2c(c1)COB2OCc1ccc(COB2OCc3cc(F)ccc32)cc1 [Compound 14, 1,4-bis(((5-fluorobenzo[c][1,2]oxaborol-1(3H)-yl)oxy)methyl)benzene] | 1.1 (≈ 2.71 µM) | 0.4 (≈ 0.985 µM) | 1.7 (≈ 4.19 µM) | 17.9 (≈ 44.1 µM) | 
Fc1ccc2c(c1)COB2OCc1cccc(COB2OCc3cc(F)ccc32)c1 [Compound 15, 1,3-bis(((5-fluorobenzo[c][1,2]oxaborol-1(3H)-yl)oxy)methyl)benzene] | 2.2 (≈ 5.42 µM) | 0.7 (≈ 1.72 µM) | 2.5 (≈ 6.16 µM) | 17.9 (≈ 44.1 µM) | 
Fc1cc2c(cc1F)B(OCCOB1OCc3cc(F)c(F)cc31)OC2 [Compound 18, 1,2-bis((5,6-difluorobenzo[c][1,2]oxaborol-1(3H)-yl)oxy)ethane] | 9 (≈ 24.6 µM) | 3 (≈ 8.2 µM) | > 35.7 | > 35.7 | 
Clc1ccc2c(c1)COB2OCCOB1OCc2cc(Cl)ccc21 [Compound 19, 1,2-bis((5-chlorobenzo[c][1,2]oxaborol-1(3H)-yl)oxy)ethane] |  |  |  |  | 0

Results, then the molecule that gave them:

MIC [1] [mg/L] | EC50 [1] [mg/L] | EC50 (Penicillium expansum) [mg/L] | MIC (Penicillium expansum) [mg/L] | MIC Botrytis cinerea [1] [mg/L] | SMILES
0.6 (≈ 1.44 µM) | 0.2 (≈ 0.481 µM) | 0.9 (≈ 2.16 µM) | 8.9 (≈ 21.4 µM) |  | Fc1ccc2c(c1)COB2OCCNCCNCCOB1OCc2cc(F)ccc21 [Compound 10, N^1,N^2-bis(2-((5-fluorobenzo[c][1,2]oxaborol-1(3H)-yl)oxy)ethyl)ethane-1,2-diamine]
0.6 (≈ 1.67 µM) | 0.2 (≈ 0.556 µM) | 1.1 (≈ 3.06 µM) | 8.9 (≈ 24.7 µM) |  | OC(COB1OCc2cc(F)ccc21)COB1OCc2cc(F)ccc21 [Compound 12, 1,3-bis((5-fluorobenzo[c][1,2]oxaborol-1(3H)-yl)oxy)propan-2-ol]
1.1 (≈ 3.22 µM) | 0.3 (≈ 0.877 µM) | 1 (≈ 2.92 µM) | 8.9 (≈ 26 µM) |  | Fc1ccc2c(c1)COB2NCCCNB1OCc2cc(F)ccc21 [Compound 16, N^1,N^3-bis(5-fluorobenzo[c][1,2]oxaborol-1(3H)-yl)propane-1,3-diamine]
1.1 (≈ 3.35 µM) | 0.4 (≈ 1.22 µM) | 1.8 (≈ 5.49 µM) | 17.9 (≈ 54.6 µM) |  | Fc1ccc2c(c1)COB2NCCNB1OCc2cc(F)ccc21 [Compound 17, N^1,N^2-bis(5-fluorobenzo[c][1,2]oxaborol-1(3H)-yl)ethane-1,2-diamine]
0.3 (≈ 1.05 µM) | 0.1 (≈ 0.35 µM) | 0.5 (≈ 1.75 µM) | 4.5 (≈ 15.7 µM) |  | Fc1ccc2c(c1)COB2OB1OCc2cc(F)ccc21 [Compound 20, 1,1′-oxybis(5-fluoro-1,3-dihydrobenzo[c][1,2]oxaborole)]

From patent US20210238201A1, “ANTIMICROBIAL COMPOUNDS AND COMPOSITIONS” (AGROFRESH INC., priority 2020, published 2021)
